# Data: paper PMC3338484
# “And” between values parts separate entries of the source, which are not always exact repeats. Equal values may be shown once.
# Tests used:
# PaFolD [1] = target: T1, PaFolD (Pseudomonas aeruginosa, UniProt Q9I2U6); assay: FolD enzyme assay (absorbance at 350 nm), IC50 determination; type: biochemical; conditions: for Hill coefficient: from PaFolD IC50 curves
# T1 construct: hexa-histidine tag with TEV protease site (N, cleaved yes); made in house; host or cells: E. coli BL21 (DE3)
# Description: Enzyme activity was assayed by measuring the absorbance at 350 nm of the intermediate product in the reaction, N ^5,N ^10-methenyl-THF, following acidification of the reaction and consequent reconversion of the final product formyl-THF to the intermediate. Following optimization of the assay buffer and determination of the enzyme linearity, assays were carried out at room temperature in a 50 µL reaction volume containing 25 mM bicine, pH 7.9, 1 mM dithiothreitol, 0.05% CHAPS, 0.2 mg mL^−1 BSA, 1 nM recombinant FolD, […] NADP^+ and 35 µM N ^5,N ^10-methylene-THF. Michaelis constants for the two substrates (NADP^+ and N ^5,N ^10-methylene-THF) were determined in an end-point assay, using these buffer and enzyme conditions.
# The HTS was performed with a compound collection of 79,029 diverse structures based around 4000 chemical scaffolds. All compounds were dissolved in 100% DMSO to a concentration of 3 mM. Single point inhibition assays were carried out at room temperature in clear, flat bottom, polystyrene, 384-well plates (Matrix). Each assay was performed in a 50 µL reaction volume as described above. A standard compound (0.5 µL in DMSO) was transferred to all assay plates using a Cartesian Hummingbird (Genomics Solutions) before 25 µL of a reaction mix, containing all assay components except NADP^+ and N ^5,N ^10-methylene-THF, was added to assay plates using a Thermo Scientific Well-Mate (Matrix). The reaction was initiated and stopped with the additions of 25 µL of substrate and 50 µL of 1 M HCl, respectively, again using a Well-Mate. The FolD assay was run at room temperature for 20 min and the signal was allowed to develop for 10 min before the absorbance of each well was read at 350 nm using an EnVision multilabel plate reader (PerkinElmer Life Sciences). ActivityBase (ID Business Solutions) was used for data processing and analysis.
# Compounds of interest were cherry picked from the original library plates using a series of 10-point inhibitor curves (consisting of half-log serial dilutions of compound in DMSO) and prepared in 384-well plates using a JANUS workstation (PerkinElmer Life Sciences). Each compound plate produced 10-point inhibitor curves for 30 test compounds and two curves for LY374571, the standard compound in this screen (see following paragraph for inhibitor details). Following preparation of the inhibitor curves, assays were carried out as described above. ActivityBase was again used for data processing and analysis. All IC50 curve fitting was undertaken within ActivityBase XE utilizing the underlying ‘MATH IQ’ engine of XLfit version 5.1.0.0. A four-parameter logistic dose-response curve was utilized for compound potency determination.
# Enzyme activity was assayed in an optimised buffer at 1 nM PaFolD. […] When saturating concentrations of either substrate or co-factor were required N ^5,N ^10-methylene-THF was used at 250 µM and NADP^+ at 1 mM. For screening the compound library N ^5,N ^10-methylene-THF was fixed at a concentration of 35 µM and NADP^+ was saturating at 1 mM and the assay was stopped after 20 minutes (within the linear range of the assay).
# [2] = system: P. aeruginosa PAO1 ATCC 15692; assay: Disc diffusion sensitivity testing; type: cell-based, Pseudomonas aeruginosa; conditions: for clearance in disc diffusion sensitivity assay: six dilutions, approximately 115 µg to 4.5 ng per disc, zones measured after 16 and 48 hours, data not shown
# Description: Compounds identified by HTS were used in a disc diffusion sensitivity test against P. aeruginosa. Briefly a single colony of P. aeruginosa PAO1 ATCC 15692 was used to inoculate a 2 mL volume of LB media prior to overnight growth at 37°C. The bacteria were then diluted 1∶100 fold prior to 100 µL volumes plated onto Iso-Sensitest agar plates and dried in air for 5 minutes. Eight 3 mm discs were impregnated with 5 µl of compound, dissolved in DMSO, prior to loading onto each plate. Two controls were used per plate, one a 100% DMSO stock, the other a 10 µg stock of gentamycin. Six compound dilutions were tested per plate, ranging from approximately 115 µg to 4.5 ng. Three compounds with known antifolate activity were tested, namely methotrexate, LY354899 and LY374571 in addition to the three singletons, DDD32388, DDD55519 and DDD61461, and two of the biaryl sulphonamide series that had been identified. Plates were incubated at 37°C, and zones of inhibition measured after 16 and 48 hours.
# PaFolD [3] = target: T1, PaFolD; assay: Differential scanning fluorimetry (DSF) thermal shift screen; type: binding; conditions: standards at 250 µM; 4 µM PaFolD, 4 mM NADP+
# From the text: It was reasoned that such conditions would favour crystallization. In addition two compound libraries, the Maybridge fragment set and the Prestwick collection of biologically active molecules, were screened after first assessing the suitability of the method for PaFolD, the optimum buffer and cofactor conditions and the lowest concentration of protein that generated a strong signal as previously described for our laboratory. An Mx3005p RT PCR system (Stratagene) was used to monitor protein unfolding by the increase in fluorescence of SYPRO Orange dye (Invitrogen). Briefly, the enzyme was tested against 1000 compounds from the Maybridge Rule of Three (Ro3) fragment library and 1120 compounds from the Prestwick Chemical Library. Assays were carried out in 40 µL volumes with PaFolD at 4 µM, supplemented with 4 mM NADP^+ in 50 mM Tris-HCl, 250 mM NaCl, pH 7.5 in 96 well RT PCR plates (Abgene). […] After each 1°C increase the sample was excited at 492 nm and fluorescence emissions recorded at 610 nm. […]
# In advance of performing a large-scale HTS, PaFolD was assayed combining DSF with the Prestwick Chemical Library of drug-like molecules (1,200 compounds) and a bespoke Maybridge RO3 fragment library of 1,000 compounds. […] A number of compounds in the Prestwick library gave apparent thermal shifts of approximately +10°C, however all of these were rejected due to their intrinsic fluorescence. […]
# HsFolD = conditions: slightly different assay conditions; read-out: IC50 against HsFolD; cited from earlier work
# PaFolD [4] = target: T1, PaFolD; assay: Surface plasmon resonance (SPR) binding to biotinylated PaFolD; conditions: for binding to PaFolD by SPR: running buffer with 1 mM NADP+, 1% DMSO, data not shown; for rate of association (SPR): association measured for 1 min, LY374571 could not compete off this binding
# Description: For analysis of compounds using SPR it was necessary to produce an expression system that provided a protein carrying a biotinylation acceptor peptide (BAP-tag). This BAP-tag peptide has the sequence 5′ - […] - 3′ and is specifically biotinylated by the E. coli biotin holoenzyme synthetase, BirA. The modified PaFolD was then purified as before. Subsequently 30 µM of BAP-tagged PaFolD was incubated at 37°C overnight in buffer C (10 mM Tris-HCl pH 7.5, 200 mM KCl, 5 mM MgCl2, 100 µM d-biotin) containing 500 µM ATP and 1 µM BirA. The sample was passed through a HisTrap HP column equilibrated with buffer A to remove BirA. The flow through was collected and concentrated (Amicon 10 kDa MWCO spin column) to remove free biotin. The incorporation of biotin was monitored by MALDI-TOF analysis performed at the University of Dundee ‘Fingerprints’ Proteomics Facility using an Applied Biosystems Voyager DE-STR spectrometer. The biotinylated protein was flash frozen at 10 mg mL^−1 in 50 mM Tris-HCl, 250 mM NaCl, 15% glycerol, pH 7.5 and stored at −80°C until required.
# A Biacore T100 instrument (GE Healthcare) was used for all SPR experiments. Biotinylated PaFolD was diluted 50-fold into a running buffer containing 50 mM Tris-HCl, pH 7.5, 150 mM NaCl, 5 mM MgCl2, 1 mM DTT, 0.05% Tween 20, 1 mM NADP^+ and 1% DMSO and injected over a streptavidin chip (GE Healthcare) at a flow rate of 10 µL min^−1 for 10 min to obtain a density of ∼4,000 response units. Compounds DDD55519 and DDD61461 were injected in duplicates at three-fold concentration series 136 nM–11 µM at a flow rate 30 µL min^−1. Association was measured for 1 min and dissociation for 20 min. Compounds DDD32388 and DDD58331 were injected at three-fold concentration series of between 1.23 µM–100 µM at a flow rate 30 µL min^−1. Association was measured for 1 min and dissociation 2 min. Data were referenced from a blank streptavidin surface and blank injections of buffer. Processing was carried out using Scrubber 2 software (BioLogic Software, Australia).
# [5] = IC50 (μM), confirmed HTS hits, ten-point dose response, 30 µM to 1 nM
# T1 sequence (Q9I2U6 whole entry): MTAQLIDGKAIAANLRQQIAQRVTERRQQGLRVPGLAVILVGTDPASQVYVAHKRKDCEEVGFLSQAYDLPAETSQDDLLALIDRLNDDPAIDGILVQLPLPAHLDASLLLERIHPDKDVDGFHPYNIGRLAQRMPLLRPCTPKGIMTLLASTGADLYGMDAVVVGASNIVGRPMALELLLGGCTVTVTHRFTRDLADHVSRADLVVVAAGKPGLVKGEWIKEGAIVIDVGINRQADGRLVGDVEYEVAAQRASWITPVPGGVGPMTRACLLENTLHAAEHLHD
compound,measurement,setting,value
NC(=O)c1ccc[n+]([C@@H]2O[C@H](COP(=O)([O-])OP(=O)(O)OC[C@H]3O[C@@H](n4cnc5c(N)ncnc54)[C@H](OP(=O)(O)O)[C@@H]3O)[C@@H](O)[C@H]2O)c1 [NADP^+],Km,"PaFolD [1]; 1 nM PaFolD, end-point assay, other substrate saturating, mean ± SD (n = 4), read-out: Michaelis constant (Km)",179 ± 11 µM
gentamycin,radius cleared (zone of inhibition),"[2]; 10 µg stock control disc, P. aeruginosa PAO1",13 mm
"Nc1nc(O)c(N)c(NC(=O)Nc2ccc(C(=O)N[C@H](CCC(=O)O)C(=O)O)cc2)n1 [LY374571, (2R)-2-[(4-{[(2,5-diamino-6-hydroxypyrimidin-4-yl)carbamoyl]amino}phenyl)formamido] pentanedioic acid]",ΔTm at 250 µM,PaFolD [3],15 °C
same,IC50,"PaFolD [1]; IC50 against PaFolD, 1 nM PaFolD, 35 µM N5,N10-methylene-THF, 1 mM NADP+, 20 min",~0.03 µM and 0.027 µM
same,clearance in disc diffusion sensitivity assay,[2],failed to give any clearance
same,IC50,HsFolD,3 nM
CCOc1nc(N)nc(N)c1S(=O)(=O)c1ccc(Cl)cc1 [DDD32388],IC50,PaFolD [1]; [5],0.9 µM
same,Hill coefficient,PaFolD [1],1.6
same,binding to PaFolD by SPR,PaFolD [4],weak
Cc1[nH]c2c(C#N)cnn2c(=O)c1Cc1ccccc1 [DDD55519],IC50,PaFolD [1]; [5],3.8 µM
same,Hill coefficient,PaFolD [1],1.2
same,rate of association (SPR),PaFolD [4],slow rates of association
same,binding to PaFolD by SPR,PaFolD [4],confirmed
Oc1cc(C(F)(F)F)nc(SCc2c(F)cccc2Cl)n1 [DDD61461],IC50,PaFolD [1]; [5],2.5 µM
same,Hill coefficient,PaFolD [1],2.6
same,rate of association (SPR),PaFolD [4],slow rates of association
same,binding to PaFolD by SPR,PaFolD [4],confirmed
"Nc1nc2c(c(=O)[nH]1)N1C(=O)N(c3ccc(C(=O)N[C@@H](CCC(=O)O)C(=O)O)cc3)CC1CN2 (stereo partly shown) [LY354899, 5,6,7,8-tetrahydro-N ^5,N ^10-carbonylfolic acid]",thermal shift,PaFolD [3],+9 °C
same,clearance in disc diffusion sensitivity assay,[2],failed to give any clearance
